According to ChEMBL document CHEMBL1201862, “PubChem BioAssay data set” (2004):
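Cultured in 96-well plates, cells were exposed to test compound for 48 hours across five concentrations. GI50 = concentration required for 50% inhibition of growth.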 The source made the active and inactive calls. No stated cut-off is given here; in the data, active = GI50 up to about 1.1 µM and inactive = higher.

Assays:
Test in all cases: inhibition of tumour cell growth, NCI panel, 48 h
RXF 393 = system: RXF 393
NCI-H460 = system: NCI-H460
HT-29 = system: HT-29
SR = system: SR
SNB-19 = system: SNB-19
XF498 = system: XF498
EKVX = system: EKVX
SK-MEL-28 = system: SK-MEL-28
TK-10 = system: TK-10
NCI-H23 = system: NCI-H23
RPMI-8226 = system: RPMI-8226
OVCAR-5 = system: OVCAR-5
SK-MEL-5 = system: SK-MEL-5
OVCAR-4 = system: OVCAR-4
HOP-92 = system: HOP-92
NCI/ADR-RES = system: NCI/ADR-RES
MCF7 = system: MCF7
HCT-15 = system: HCT-15
CAKI-1 = system: CAKI-1
UACC-62 = system: UACC-62

Measured: GI50

COc1ccc(CC(=O)NCCc2ccc(OC)c(OC)c2OC)cc1
inactive: RXF 393 > 100 µM | NCI-H460 > 100 µM | HT-29 > 100 µM | SR > 100 µM | SNB-19 > 100 µM | XF498 > 100 µM | EKVX > 100 µM | SK-MEL-28 > 100 µM | TK-10 > 100 µM | NCI-H23 > 100 µM | RPMI-8226 > 100 µM | OVCAR-5 > 100 µM | SK-MEL-5 > 100 µM

CSc1ccc(NC(=O)CCl)cc1
5.97 µM: HCT-15
inactive: RXF 393 3.17 µM | NCI-H460 2.41 µM | OVCAR-4 > 10 µM | HT-29 3.65 µM | SR 2.7 µM | SNB-19 4.86 µM | EKVX > 10 µM | HOP-92 2.63 µM | SK-MEL-28 5.7 µM | NCI/ADR-RES 3.24 µM | TK-10 > 10 µM | MCF7 3.51 µM | NCI-H23 9.59 µM | RPMI-8226 3.32 µM | OVCAR-5 3.33 µM | CAKI-1 2.97 µM | UACC-62 1.85 µM | SK-MEL-5 2.08 µM

COc1ccccc1/C=C/c1nc2ccccc2o1
inactive: RXF 393 > 10 µM | NCI-H460 > 10 µM | OVCAR-4 > 10 µM | HT-29 > 10 µM | SR > 10 µM | SNB-19 > 10 µM | EKVX > 10 µM | HOP-92 6.19 µM | SK-MEL-28 > 10 µM | NCI/ADR-RES > 10 µM | TK-10 > 10 µM | MCF7 > 10 µM | NCI-H23 > 10 µM | RPMI-8226 > 10 µM | OVCAR-5 > 10 µM | CAKI-1 > 10 µM | UACC-62 > 10 µM | SK-MEL-5 > 10 µM
> 10 µM: HCT-15

Cc1cccc2c1NC(=O)/C2=N\Nc1ccccc1[N+](=O)[O-]
inactive: RXF 393 3.66 µM | NCI-H460 6.9 µM | OVCAR-4 4.05 µM | HT-29 4.35 µM | SR 2.7 µM | SNB-19 30.5 µM | EKVX 1.58 µM | HOP-92 2.38 µM | SK-MEL-28 37.3 µM | NCI/ADR-RES 4.74 µM | TK-10 6.84 µM | MCF7 4.6 µM | NCI-H23 6.67 µM | RPMI-8226 10 µM | OVCAR-5 26.2 µM | CAKI-1 8.09 µM | UACC-62 14.5 µM | SK-MEL-5 6.93 µM
15.3 µM: HCT-15

Cc1cc(N(CCC#N)CCC#N)ccc1/C=C1N=C(/C=C/c2ccccc2)OC(=O)N\1
inactive: RXF 393 91.8 µM | NCI-H460 > 100 µM | HT-29 > 100 µM | SNB-19 > 100 µM | XF498 > 100 µM | EKVX > 100 µM | SK-MEL-28 > 100 µM | TK-10 > 100 µM | NCI-H23 > 100 µM | RPMI-8226 > 100 µM | OVCAR-5 > 100 µM | CAKI-1 > 100 µM | UACC-62 > 100 µM | SK-MEL-5 > 100 µM
> 100 µM: HCT-15

CCO/C=C1\N=C(c2ccccc2Br)OC1=O
inactive: RXF 393 > 100 µM | NCI-H460 > 100 µM | OVCAR-4 > 100 µM | HT-29 > 100 µM | SNB-19 > 100 µM | XF498 > 100 µM | EKVX > 100 µM | HOP-92 > 100 µM | SK-MEL-28 > 100 µM | TK-10 > 100 µM | NCI-H23 > 100 µM | RPMI-8226 > 100 µM | OVCAR-5 > 100 µM | CAKI-1 > 100 µM | UACC-62 > 100 µM
> 100 µM: HCT-15

CCCCCCC(/C=N/O)C(C)(O)CCC (stereo not drawn)
> 100 µM: HCT-15
inactive: RXF 393 > 100 µM | NCI-H460 > 100 µM | OVCAR-4 > 100 µM | HT-29 > 100 µM | SNB-19 > 100 µM | XF498 13.2 µM | EKVX > 100 µM | SK-MEL-28 > 100 µM | TK-10 > 100 µM | NCI-H23 > 100 µM | RPMI-8226 54 µM | OVCAR-5 > 100 µM | CAKI-1 > 100 µM | UACC-62 > 100 µM | SK-MEL-5 > 100 µM

N/C(=N\O)NCCN1CCCCCCC1
> 100 µM: HCT-15
inactive: RXF 393 > 100 µM | NCI-H460 > 100 µM | OVCAR-4 > 100 µM | HT-29 > 100 µM | SR > 100 µM | SNB-19 > 100 µM | EKVX > 100 µM | HOP-92 > 100 µM | SK-MEL-28 > 100 µM | NCI/ADR-RES > 100 µM | TK-10 > 100 µM | MCF7 26.5 µM | NCI-H23 > 100 µM | RPMI-8226 > 100 µM | OVCAR-5 > 100 µM | CAKI-1 > 100 µM | UACC-62 > 100 µM | SK-MEL-5 > 100 µM

COc1cc(/C=N\O[Si](C)(C)C(C)(C)C)ccc1O[Si](C)(C)C(C)(C)C
27.4 µM: HCT-15
inactive: RXF 393 36 µM | NCI-H460 > 100 µM | OVCAR-4 > 100 µM | HT-29 47.3 µM | SNB-19 76.9 µM | XF498 38.6 µM | EKVX > 100 µM | HOP-92 25.4 µM | TK-10 > 100 µM | RPMI-8226 56.6 µM | OVCAR-5 33.7 µM | CAKI-1 > 100 µM | UACC-62 > 100 µM | SK-MEL-5 > 100 µM

COc1cc2cc(C(=O)N3CC(CCl)c4c3cc([N+](C)(C)Cc3ccc([N+](=O)[O-])n3C)c3ccccc43)[nH]c2c(OC)c1OC (stereo not drawn)
inactive: OVCAR-4 1.88 µM | HT-29 1.29 µM | SNB-19 3.44 µM | EKVX 2.72 µM | SK-MEL-28 2.33 µM | TK-10 2.67 µM | MCF7 1.46 µM | OVCAR-5 6.05 µM | CAKI-1 1.71 µM | UACC-62 1.12 µM | SK-MEL-5 1.32 µM
1.58 µM: HCT-15
active: RXF 393 0.0107 µM | NCI-H460 0.327 µM | SR < 0.0385 µM | HOP-92 0.619 µM | NCI/ADR-RES 0.849 µM | NCI-H23 0.472 µM | RPMI-8226 0.316 µM

COC(=O)C(COC(=O)/C=C/c1ccc(OC(C)=O)c(OC(C)=O)c1)OC(=O)/C=C/c1ccc(OC(C)=O)c(OC(C)=O)c1 (stereo not drawn)
inactive: RXF 393 12.3 µM | NCI-H460 18.7 µM | OVCAR-4 15.3 µM | HT-29 6.9 µM | SR 3.01 µM | SNB-19 8.32 µM | EKVX 17.5 µM | HOP-92 18 µM | SK-MEL-28 15.5 µM | NCI/ADR-RES 20 µM | TK-10 18.6 µM | MCF7 6.61 µM | NCI-H23 12 µM | RPMI-8226 11.6 µM | OVCAR-5 13 µM | CAKI-1 6.87 µM | UACC-62 16.8 µM | SK-MEL-5 14.8 µM
5.38 µM: HCT-15

C[C@]12C=CC(=O)C=C1CC[C@@H]1[C@@H]2C(=O)C[C@@]2(C)[C@H]1CC[C@]2(O)C(=O)CO [PREDNISONE]
> 100 µM: HCT-15
inactive: RXF 393 > 100 µM | NCI-H460 > 100 µM | OVCAR-4 > 100 µM | HT-29 > 100 µM | SR > 100 µM | SNB-19 > 100 µM | EKVX > 100 µM | HOP-92 > 100 µM | SK-MEL-28 > 100 µM | NCI/ADR-RES > 100 µM | TK-10 > 100 µM | MCF7 > 100 µM | NCI-H23 > 100 µM | RPMI-8226 > 100 µM | OVCAR-5 > 100 µM | CAKI-1 > 100 µM | UACC-62 > 100 µM | SK-MEL-5 > 100 µM
